Experimental data: patent publication US10004701B2, “Methods and compositions for treating infection” (UNIVERSITY OF ROCHESTER, priority 2012, dated 2018)
Structures can show the parent of a compound that is named as a salt. Where two headings read alike, the source gives them in different places.

Legend:
Experiment in all cases: AK assay 384-well format, Prestwick library screening
[1] = test system: K. pneumoniae; assay type: cell-based, Klebsiella pneumoniae; conditions: for fold induction at 50 µM: Klebsiella pneumoniae, 3 h
[2] = test system: S. aureus strain USA300-0114; assay type: cell-based, Staphylococcus aureus; conditions: for fold induction at 50 µM: Staphylococcus aureus, USA300, 3 h
[3] = test system: P. aeruginosa; assay type: cell-based, Pseudomonas aeruginosa; conditions: for fold induction at 50 µM: Pseudomonas aeruginosa, 3 h
[4] = test system: A. baumannii strain 98-37-09; assay type: cell-based, Acinetobacter baumannii; conditions: for fold induction at 50 µM: Acinetobacter baumannii, 983709, 3 h
[5] = test system: E. coli; assay type: cell-based, Escherichia coli; conditions: for fold induction at 50 µM: Escherichia coli, 3 h
[6] = test system: E. faecium; assay type: cell-based, Enterococcus faecium; conditions: for fold induction at 50 µM: Enterococcus faecium, 3 h
[7] = test system: E. cloacae; assay type: cell-based, Enterobacter cloacae; conditions: for fold induction at 50 µM: Enterobacter cloacae, 3 h
[8] = 50 μM final drug concentration, 384-well format, cutoff for positive-scoring molecules 3-fold increase, read-out: AK-based Prestwick Library Screening Results, K. pneumoniae (increase in extracellular AK activity)
[9] = 50 μM final drug concentration, 384-well format, cutoff for positive-scoring molecules 3-fold increase, read-out: AK-based Prestwick Library Screening Results, S. aureus (increase in extracellular AK activity)
[10] = 50 μM final drug concentration, 384-well format, cutoff for positive-scoring molecules 3-fold increase, read-out: AK-based Prestwick Library Screening Results, P. aeruginosa (increase in extracellular AK activity)
[11] = 50 μM final drug concentration, 384-well format, cutoff for positive-scoring molecules 3-fold increase, read-out: AK-based Prestwick Library Screening Results, A. baumannii (increase in extracellular AK activity)
[12] = 50 μM final drug concentration, 384-well format, cutoff for positive-scoring molecules 3-fold increase, read-out: AK-based Prestwick Library Screening Results, E. coli (increase in extracellular AK activity)
[13] = 50 μM final drug concentration, 384-well format, cutoff for positive-scoring molecules 3-fold increase, read-out: AK-based Prestwick Library Screening Results, E. faecium (increase in extracellular AK activity)
[14] = 50 μM final drug concentration, 384-well format, cutoff for positive-scoring molecules 3-fold increase, read-out: AK-based Prestwick Library Screening Results, E. cloacae (increase in extracellular AK activity)
[15] = 50 μM final drug concentration, 384-well format, […]
[16] = 50 μM final drug concentration, 384-well format, cutoff for positive-scoring molecules 3-fold increase

## C[C@@H]1[C@H](O)[C@@H](C)/C=C/C=C/C=C/C=C/C=C/C=C/C=C/[C@H](O[C@@H]2O[C@H](C)[C@@H](O)[C@H](N)[C@@H]2O)C[C@@H]2O[C@](O)(C[C@@H](O)C[C@@H](O)[C@H](O)CC[C@@H](O)C[C@@H](O)CC(=O)O[C@H]1C)C[C@H](O)[C@H]2C(=O)O [Amphotericin B]
[1]; planktonic K. pneumoniae, 50 μM final drug concentration, 384-well, cutoff for positive-scoring molecules 3-fold increase
  AK-based Prestwick Library Screening Results: K. pneumoniae (increase in extracellular AK activity): 0.7
[2]; planktonic S. aureus, 50 μM final drug concentration, 384-well, cutoff for positive-scoring molecules 3-fold increase
  AK-based Prestwick Library Screening Results: S. aureus (increase in extracellular AK activity): 0.5
[3]; planktonic P. aeruginosa, 50 μM final drug concentration, 384-well, cutoff for positive-scoring molecules 3-fold increase
  AK-based Prestwick Library Screening Results: P. aeruginosa (increase in extracellular AK activity): 0.4
[4]; planktonic A. baumannii, 50 μM final drug concentration, 384-well, cutoff for positive-scoring molecules 3-fold increase
  AK-based Prestwick Library Screening Results: A. baumannii (increase in extracellular AK activity): 0.5
[5]; planktonic E. coli, 50 μM final drug concentration, 384-well, cutoff for positive-scoring molecules 3-fold increase
  AK-based Prestwick Library Screening Results: E. coli (increase in extracellular AK activity): 0.5
[6]; planktonic E. faecium, 50 μM final drug concentration, 384-well, cutoff for positive-scoring molecules 3-fold increase
  AK-based Prestwick Library Screening Results: E. faecium (increase in extracellular AK activity): 0.9
[7]; planktonic E. cloacae, 50 μM final drug concentration, 384-well, cutoff for positive-scoring molecules 3-fold increase
  AK-based Prestwick Library Screening Results: E. cloacae (increase in extracellular AK activity): 0.5

## CC1(C)S[C@@H]2[C@H](NC(=O)[C@H](N)c3ccccc3)C(=O)N2[C@H]1C(=O)O [Ampicillin trihydrate]
[1]; [8]
  fold induction at 50 µM: 0.6
[2]; [9]
  fold induction at 50 µM: 0.5
[3]; [10]
  fold induction at 50 µM: 0.7
[4]; [11]
  fold induction at 50 µM: 1.6
[5]; [12]
  fold induction at 50 µM: 12.2
[6]; [13]
  fold induction at 50 µM: 1.1
[7]; [14]
  fold induction at 50 µM: 3.5

## CCCc1ncc(C[n+]2ccccc2C)c(N)n1 [Amprolium hydrochloride]
[1]; [8]
  fold induction at 50 µM: 0.6
[2]; [9]
  fold induction at 50 µM: 0.5
[3]; [10]
  fold induction at 50 µM: 0.4
[4]; [11]
  fold induction at 50 µM: 0.5
[5]; [12]
  fold induction at 50 µM: 0.5
[6]; [13]
  fold induction at 50 µM: 0.9
[7]; [14]
  fold induction at 50 µM: 0.4

## Cc1c(N)c(=O)n(-c2ccccc2)n1C [Ampyrone]
[1]; [8]
  fold induction at 50 µM: 0.7
[2]; [9]
  fold induction at 50 µM: 0.8
[3]; [10]
  fold induction at 50 µM: 1
[4]; [11]
  fold induction at 50 µM: 0.9
[5]; [12]
  fold induction at 50 µM: 0.9
[6]; [13]
  fold induction at 50 µM: 1
[7]; [14]
  fold induction at 50 µM: 1

## Nc1cc(-c2ccncc2)c[nH]c1=O [Amrinone]
[1]; 50 μM final drug concentration, cutoff for positive-scoring molecules 3-fold increase, read-out: AK-based Prestwick Library Screening Results, K. pneumoniae (fold increase in extracellular AK activity)
  fold induction at 50 µM: 1.1
[2]; 50 μM final drug concentration, cutoff for positive-scoring molecules 3-fold increase, read-out: AK-based Prestwick Library Screening Results, S. aureus (fold increase in extracellular AK activity)
  fold induction at 50 µM: 1.1
[3]; 50 μM final drug concentration, cutoff for positive-scoring molecules 3-fold increase, read-out: AK-based Prestwick Library Screening Results, P. aeruginosa (fold increase in extracellular AK activity)
  fold induction at 50 µM: 1
[4]; 50 μM final drug concentration, cutoff for positive-scoring molecules 3-fold increase, read-out: AK-based Prestwick Library Screening Results, A. baumannii (fold increase in extracellular AK activity)
  fold induction at 50 µM: 1.2
[5]; 50 μM final drug concentration, cutoff for positive-scoring molecules 3-fold increase, read-out: AK-based Prestwick Library Screening Results, E. coli (fold increase in extracellular AK activity)
  fold induction at 50 µM: 1.3
[6]; 50 μM final drug concentration, cutoff for positive-scoring molecules 3-fold increase, read-out: AK-based Prestwick Library Screening Results, E. faecium (fold increase in extracellular AK activity)
  fold induction at 50 µM: 1
[7]; 50 μM final drug concentration, cutoff for positive-scoring molecules 3-fold increase, read-out: AK-based Prestwick Library Screening Results, E. cloacae (fold increase in extracellular AK activity)
  fold induction at 50 µM: 44

## CCC(C)(CN(C)C)OC(=O)c1ccccc1.Cl (centres unmarked) [Amyleine hydrochloride]
[1]; [15]
  AK-based Prestwick Library Screening Results, K. pneumoniae (increase in extracellular AK activity): 0.8
[2]; [15]
  AK-based Prestwick Library Screening Results, S. aureus (increase in extracellular AK activity): 1.1
[3]; [15]
  AK-based Prestwick Library Screening Results, P. aeruginosa (increase in extracellular AK activity): 0.9
[4]; [15]
  AK-based Prestwick Library Screening Results, A. baumannii (increase in extracellular AK activity): 1.1
[5]; [15]
  AK-based Prestwick Library Screening Results, E. coli (increase in extracellular AK activity): 1.4
[6]; [15]
  AK-based Prestwick Library Screening Results, E. faecium (increase in extracellular AK activity): 1.1
[7]; [15]
  AK-based Prestwick Library Screening Results, E. cloacae (increase in extracellular AK activity): 1.2

## c1cncc([C@@H]2CCCCN2)c1 [Anabasine]
[1]; 50 μM final drug concentration, planktonic, […], read-out: AK-based Prestwick Library Screening Results, K. pneumoniae (fold increase in extracellular AK activity)
  fold induction at 50 µM: 0.8
[2]; 50 μM final drug concentration, planktonic, […], read-out: AK-based Prestwick Library Screening Results, S. aureus (fold increase in extracellular AK activity)
  fold induction at 50 µM: 0.6
[3]; 50 μM final drug concentration, planktonic, […], read-out: AK-based Prestwick Library Screening Results, P. aeruginosa (fold increase in extracellular AK activity)
  fold induction at 50 µM: 0.9
[4]; 50 μM final drug concentration, planktonic, […], read-out: AK-based Prestwick Library Screening Results, A. baumannii (fold increase in extracellular AK activity)
  fold induction at 50 µM: 0.8
[5]; 50 μM final drug concentration, planktonic, […], read-out: AK-based Prestwick Library Screening Results, E. coli (fold increase in extracellular AK activity)
  fold induction at 50 µM: 1
[6]; 50 μM final drug concentration, planktonic, […], read-out: AK-based Prestwick Library Screening Results, E. faecium (fold increase in extracellular AK activity)
  fold induction at 50 µM: 0.9
[7]; 50 μM final drug concentration, planktonic, […], read-out: AK-based Prestwick Library Screening Results, E. cloacae (fold increase in extracellular AK activity)
  fold induction at 50 µM: 1

## C[C@]12CC[C@@H](O)C[C@@H]1CC[C@@H]1[C@@H]2CC[C@]2(C)C(=O)CC[C@@H]12 [Androsterone]
[1]; read-out: AK-based Prestwick Library Screening Results, K. pneumoniae (increase in extracellular AK activity)
  fold induction at 50 µM: 0.5
[2]; read-out: AK-based Prestwick Library Screening Results, S. aureus (increase in extracellular AK activity)
  fold induction at 50 µM: 0.5
[3]; read-out: AK-based Prestwick Library Screening Results, P. aeruginosa (increase in extracellular AK activity)
  fold induction at 50 µM: 0.6
[4]; read-out: AK-based Prestwick Library Screening Results, A. baumannii (increase in extracellular AK activity)
  fold induction at 50 µM: 0.7
[5]; read-out: AK-based Prestwick Library Screening Results, E. coli (increase in extracellular AK activity)
  fold induction at 50 µM: 0.6
[6]; read-out: AK-based Prestwick Library Screening Results, E. faecium (increase in extracellular AK activity)
  fold induction at 50 µM: 1
[7]; read-out: AK-based Prestwick Library Screening Results, E. cloacae (increase in extracellular AK activity)
  fold induction at 50 µM: 0.7

## COc1ccc(C[C@H]2NC[C@H](O)[C@H]2OC(C)=O)cc1 [Anisomycin]
[1]; planktonic K. pneumoniae, 50 μM final drug concentration, […]
  AK-based Prestwick Library Screening Results, K. pneumoniae (increase in extracellular AK activity): 0.5
[2]; planktonic S. aureus, 50 μM final drug concentration, […]
  AK-based Prestwick Library Screening Results, S. aureus (increase in extracellular AK activity): 0.7
[3]; planktonic P. aeruginosa, 50 μM final drug concentration, […]
  AK-based Prestwick Library Screening Results, P. aeruginosa (increase in extracellular AK activity): 0.7
[4]; planktonic A. baumannii, 50 μM final drug concentration, […]
  AK-based Prestwick Library Screening Results, A. baumannii (increase in extracellular AK activity): 0.7
[5]; planktonic E. coli, 50 μM final drug concentration, […]
  AK-based Prestwick Library Screening Results, E. coli (increase in extracellular AK activity): 0.7
[6]; planktonic E. faecium, 50 μM final drug concentration, […]
  AK-based Prestwick Library Screening Results, E. faecium (increase in extracellular AK activity): 1.0
[7]; planktonic E. cloacae, 50 μM final drug concentration, […]
  AK-based Prestwick Library Screening Results, E. cloacae (increase in extracellular AK activity): 0.7

## c1ccc(CN(CC2=NCCN2)c2ccccc2)cc1 [Antazoline hydrochloride]
[1]; [8]
  fold induction at 50 µM: 0.6
[2]; [9]
  fold induction at 50 µM: 0.8
[3]; [10]
  fold induction at 50 µM: 0.7
[4]; [11]
  fold induction at 50 µM: 0.8
[5]; [12]
  fold induction at 50 µM: 0.7
[6]; [13]
  fold induction at 50 µM: 1
[7]; [14]
  fold induction at 50 µM: 0.8

## Cc1c(O)c(=O)n(-c2ccccc2)n1C [Antipyrine, 4-hydroxy]
[1]; [16]
  AK-based Prestwick Library Screening Results, K. pneumoniae (increase in extracellular AK activity): 0.7
[2]; [16]
  AK-based Prestwick Library Screening Results, S. aureus (increase in extracellular AK activity): 0.7
[3]; [16]
  AK-based Prestwick Library Screening Results, P. aeruginosa (increase in extracellular AK activity): 0.8
[4]; [16]
  AK-based Prestwick Library Screening Results, A. baumannii (increase in extracellular AK activity): 0.8
[5]; [16]
  AK-based Prestwick Library Screening Results, E. coli (increase in extracellular AK activity): 0.9
[6]; [16]
  AK-based Prestwick Library Screening Results, E. faecium (increase in extracellular AK activity): 1.0
[7]; [16]
  AK-based Prestwick Library Screening Results, E. cloacae (increase in extracellular AK activity): 1.0
